Measurements: US8952024B2, “Herbicidal pyrimidone derivatives” (E I du Pont de Nemours and Company, priority 2009, dated 2015)

Each compound was assayed on barnyardgrass (Echinochloa crus-galli) (assay: Test A pre-/postemergence plant response). Details: Postemergence, 125 g ai/ha; visual injury, 0 to 100 scale (0 no effect, 100 complete control), approx. ten days.
Assay type: in vivo
In short: (§1)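 Pre: directed soil spray on seeded loam/sand blend. Post: same formulation (non-phytotoxic solvent + surfactant) on 2–10 cm plants, 1–2 leaf stage. Greenhouse ~10 d; visual injury score 0–100 vs untreated.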

Row | SMILES | Barnyardgrass plant response rating
1 | O=C1CCCC(O)=C1C(=O)c1cnc(-c2ccccc2Br)n(-c2ccccc2)c1=O [Compound 71] | 0

Same assay, conditions: Postemergence, 500 g ai/ha; 0 to 100 scale, 0 = no effect, 100 = complete control; approx. ten days

Row | SMILES | Plant response rating, Barnyardgrass
2 | O=C1CCCC(O)=C1C(=O)c1cnc(-c2ccccc2Br)n(-c2ccccc2)c1=O [Compound 71] | 60

Same assay, conditions: Preemergence, 125 g ai/ha; 0 to 100 scale, 0 = no effect, 100 = complete control

Row | SMILES | Plant response rating, Barnyardgrass
3 | O=C1CCCC(O)=C1C(=O)c1cnc(-c2ccccc2Br)n(-c2ccccc2)c1=O [Compound 71] | 0

Same assay, conditions: Preemergence, 500 g ai/ha; visual injury, 0 to 100 scale (0 no effect, 100 complete control), approx. ten days

Row | SMILES | Plant response rating, Barnyardgrass
4 | O=C1CCCC(O)=C1C(=O)c1cnc(-c2ccccc2Br)n(-c2ccccc2)c1=O [Compound 71] | 0

What follows are compounds tested on corn (Zea mays) (assay: Test A pre-/postemergence plant response). Details: Postemergence, 125 g ai/ha; visual injury, 0 to 100 scale (0 no effect, 100 complete control), approx. ten days.
Assay type: in vivo
In short: as §1

Row | SMILES | Corn plant response rating
5 | O=C1CCCC(O)=C1C(=O)c1cnc(-c2ccccc2Br)n(-c2ccccc2)c1=O [Compound 71] | 0

Same assay, conditions: Postemergence, 500 g ai/ha; 0 to 100 scale, 0 = no effect, 100 = complete control; approx. ten days

Row | SMILES | Plant response rating, Corn
6 | O=C1CCCC(O)=C1C(=O)c1cnc(-c2ccccc2Br)n(-c2ccccc2)c1=O [Compound 71] | 20

Same assay, conditions: Preemergence, 125 g ai/ha; 0 to 100 scale, 0 = no effect, 100 = complete control

Row | SMILES | Plant response rating, Corn
7 | O=C1CCCC(O)=C1C(=O)c1cnc(-c2ccccc2Br)n(-c2ccccc2)c1=O [Compound 71] | 0

Same assay, conditions: Preemergence, 500 g ai/ha; visual injury, 0 to 100 scale (0 no effect, 100 complete control), approx. ten days

Row | SMILES | Plant response rating, Corn
8 | O=C1CCCC(O)=C1C(=O)c1cnc(-c2ccccc2Br)n(-c2ccccc2)c1=O [Compound 71] | 0

These compounds were tested on giant foxtail (Setaria faberii) (assay: Test A pre-/postemergence plant response). Details: Postemergence, 125 g ai/ha; visual injury, 0 to 100 scale (0 no effect, 100 complete control), approx. ten days.
Assay type: in vivo
In short: as §1

Row | SMILES | Foxtail, Giant plant response rating
9 | O=C1CCCC(O)=C1C(=O)c1cnc(-c2ccccc2Br)n(-c2ccccc2)c1=O [Compound 71] | 20

Same assay, conditions: Postemergence, 500 g ai/ha; 0 to 100 scale, 0 = no effect, 100 = complete control; approx. ten days

Row | SMILES | Plant response rating, Foxtail, Giant
10 | O=C1CCCC(O)=C1C(=O)c1cnc(-c2ccccc2Br)n(-c2ccccc2)c1=O [Compound 71] | 60

Same assay, conditions: Preemergence, 125 g ai/ha; 0 to 100 scale, 0 = no effect, 100 = complete control

Row | SMILES | Plant response rating, Foxtail, Giant
11 | O=C1CCCC(O)=C1C(=O)c1cnc(-c2ccccc2Br)n(-c2ccccc2)c1=O [Compound 71] | 0

Same assay, conditions: Preemergence, 500 g ai/ha; visual injury, 0 to 100 scale (0 no effect, 100 complete control), approx. ten days

Row | SMILES | Plant response rating, Foxtail, Giant
12 | O=C1CCCC(O)=C1C(=O)c1cnc(-c2ccccc2Br)n(-c2ccccc2)c1=O [Compound 71] | 10

These compounds were tested on large crabgrass (Digitaria sanguinalis) (assay: Test A pre-/postemergence plant response). Details: Postemergence, 125 g ai/ha; visual injury, 0 to 100 scale (0 no effect, 100 complete control), approx. ten days.
Assay type: in vivo
In short: as §1

Row | SMILES | Crabgrass, Large plant response rating
13 | O=C1CCCC(O)=C1C(=O)c1cnc(-c2ccccc2Br)n(-c2ccccc2)c1=O [Compound 71] | 30

Same assay, conditions: Postemergence, 500 g ai/ha; 0 to 100 scale, 0 = no effect, 100 = complete control; approx. ten days

Row | SMILES | Plant response rating, Crabgrass, Large
14 | O=C1CCCC(O)=C1C(=O)c1cnc(-c2ccccc2Br)n(-c2ccccc2)c1=O [Compound 71] | 80

Same assay, conditions: Preemergence, 125 g ai/ha; 0 to 100 scale, 0 = no effect, 100 = complete control

Row | SMILES | Plant response rating, Crabgrass, Large
15 | O=C1CCCC(O)=C1C(=O)c1cnc(-c2ccccc2Br)n(-c2ccccc2)c1=O [Compound 71] | 10

Same assay, conditions: Preemergence, 500 g ai/ha; visual injury, 0 to 100 scale (0 no effect, 100 complete control), approx. ten days

Row | SMILES | Plant response rating, Crabgrass, Large
16 | O=C1CCCC(O)=C1C(=O)c1cnc(-c2ccccc2Br)n(-c2ccccc2)c1=O [Compound 71] | 50

The compounds below were run on morningglory (Ipomoea spp.) (assay: Test A pre-/postemergence plant response). Details: Postemergence, 125 g ai/ha; visual injury, 0 to 100 scale (0 no effect, 100 complete control), approx. ten days.
Assay type: in vivo
In short: as §1

Row | SMILES | Morningglory plant response rating
17 | O=C1CCCC(O)=C1C(=O)c1cnc(-c2ccccc2Br)n(-c2ccccc2)c1=O [Compound 71] | 80

Same assay, conditions: Postemergence, 500 g ai/ha; 0 to 100 scale, 0 = no effect, 100 = complete control; approx. ten days

Row | SMILES | Plant response rating, Morningglory
18 | O=C1CCCC(O)=C1C(=O)c1cnc(-c2ccccc2Br)n(-c2ccccc2)c1=O [Compound 71] | 100

Same assay, conditions: Preemergence, 125 g ai/ha; 0 to 100 scale, 0 = no effect, 100 = complete control

Row | SMILES | Plant response rating, Morningglory
19 | O=C1CCCC(O)=C1C(=O)c1cnc(-c2ccccc2Br)n(-c2ccccc2)c1=O [Compound 71] | 0

Same assay, conditions: Preemergence, 500 g ai/ha; visual injury, 0 to 100 scale (0 no effect, 100 complete control), approx. ten days

Row | SMILES | Plant response rating, Morningglory
20 | O=C1CCCC(O)=C1C(=O)c1cnc(-c2ccccc2Br)n(-c2ccccc2)c1=O [Compound 71] | 0

Each compound was assayed on pigweed (Amaranthus retroflexus) (assay: Test A pre-/postemergence plant response). Details: Postemergence, 125 g ai/ha; visual injury, 0 to 100 scale (0 no effect, 100 complete control), approx. ten days.
Assay type: in vivo
In short: as §1

Row | SMILES | Pigweed plant response rating
21 | O=C1CCCC(O)=C1C(=O)c1cnc(-c2ccccc2Br)n(-c2ccccc2)c1=O [Compound 71] | 70

Same assay, conditions: Postemergence, 500 g ai/ha; 0 to 100 scale, 0 = no effect, 100 = complete control; approx. ten days

Row | SMILES | Plant response rating, Pigweed
22 | O=C1CCCC(O)=C1C(=O)c1cnc(-c2ccccc2Br)n(-c2ccccc2)c1=O [Compound 71] | 100

Same assay, conditions: Preemergence, 500 g ai/ha; visual injury, 0 to 100 scale (0 no effect, 100 complete control), approx. ten days

Row | SMILES | Plant response rating, Pigweed
23 | O=C1CCCC(O)=C1C(=O)c1cnc(-c2ccccc2Br)n(-c2ccccc2)c1=O [Compound 71] | 90

Each compound was assayed on velvetleaf (Abutilon theophrasti) (assay: Test A pre-/postemergence plant response). Details: Postemergence, 125 g ai/ha; visual injury, 0 to 100 scale (0 no effect, 100 complete control), approx. ten days.
Assay type: in vivo
In short: as §1

Row | SMILES | Velvetleaf plant response rating
24 | O=C1CCCC(O)=C1C(=O)c1cnc(-c2ccccc2Br)n(-c2ccccc2)c1=O [Compound 71] | 100

Same assay, conditions: Postemergence, 500 g ai/ha; 0 to 100 scale, 0 = no effect, 100 = complete control; approx. ten days

Row | SMILES | Plant response rating, Velvetleaf
25 | O=C1CCCC(O)=C1C(=O)c1cnc(-c2ccccc2Br)n(-c2ccccc2)c1=O [Compound 71] | 100
